Results from patent US5358707A, “Oxidized variants of GM-CSF” (Schering Corporation, priority 1992, dated 1994).
Values joined by “and” are separate entries in the source; they are usually repeats but may differ in a detail not shown here. Equal entries are not always repeated.

Tests used:
KG-1 cells = experiment: KG-1 Cell Bioassay (MTT, cell growth stimulation); assay type: cell-based, human
Procedure: Briefly, cultures of about 1×10^4 cells were incubated with dilutions of the various proteins in Iscove's modified Dulbecco's medium at 37° C. for 6 days. The tetrazolium salt MTT (3-[4,5-Dimethylthiazol-2-yl]-2,5-diphenyltetrazolium bromide; Thiazolyl blue) was then added at a final concentration of 0.5 mg/ml, and incubation was continued for another 4 hours. MTT is cleaved by mitochondrial dehydrogenase enzymes to produce a colored reaction product, formazan, the quantity of which is directly related to LOG2 cell concentration.

[1] = Analytical isoelectric focusing; assay type: physicochemical

## GM-CSF: Unoxidized recombinant mature human GM-CSF produced in E. coli; designated V0 when isolated from the secretory expression extract
KG-1 cells; KG-1 cells, 6 days, MTT, titer from dilution producing 50% maximal cell growth stimulation vs standard GM-CSF, MET-O and V variants analysed at different times
  Biological Activity (Units/mg × 10^-9): 2.9 Units/mg × 10^-9 and 5.3 Units/mg × 10^-9
KG-1 cells; percentage of the unoxidized GM-CSF specific bioactivity of the same run
  Biological Activity (% GM-CSF Activity): 100%
[1]
  pI: about 5.3
